Measured values: ChEMBL document CHEMBL5143638, “Natural aloe emodin-hybridized sulfonamide aminophosphates as novel potential membrane-perturbing and DNA-intercalating agents against Enterococcus faecalis” (Bioorg Med Chem Lett, 2022)
Converted amounts (≈) assume the structure as drawn.

Key:
Assay type in all cases: functional
[1] = system: Pseudomonas aeruginosa; assay: Antibacterial activity against Pseudomonas aeruginosa ATCC 27853 assessed as inhibition of bacterial growth measured after 24 hrs by CLSI based broth microdilution method
[2] = system: Staphylococcus aureus; assay: Antibacterial activity against Staphylococcus aureus assessed as inhibition of bacterial growth measured after 24 hrs by CLSI based broth microdilution method
[3] = system: Staphylococcus aureus; assay: Antibacterial activity against Staphylococcus aureus ATCC 25923 assessed as inhibition of bacterial growth measured after 24 hrs by CLSI based broth microdilution method
[4] = system: Escherichia coli; assay: Antibacterial activity against Escherichia coli ATCC 25922 assessed as inhibition of bacterial growth measured after 24 hrs by CLSI based broth microdilution method
[5] = system: Escherichia coli; assay: Antibacterial activity against Escherichia coli assessed as inhibition of bacterial growth measured after 24 hrs by CLSI based broth microdilution method
[6] = system: Klebsiella pneumoniae; assay: Antibacterial activity against Klebsiella pneumoniae assessed as inhibition of bacterial growth measured after 24 hrs by CLSI based broth microdilution method
[7] = system: Acinetobacter baumannii; assay: Antibacterial activity against Acinetobacter baumannii assessed as inhibition of bacterial growth measured after 24 hrs by CLSI based broth microdilution method
[8] = system: Pseudomonas aeruginosa; assay: Antibacterial activity against Pseudomonas aeruginosa assessed as inhibition of bacterial growth measured after 24 hrs by CLSI based broth microdilution method
[9] = system: Staphylococcus aureus; assay: Antibacterial activity against methicillin-resistant Staphylococcus aureus N315 assessed as inhibition of bacterial growth measured after 24 hrs by CLSI based broth microdilution method
[10] = system: Enterococcus faecalis; assay: Antibacterial activity against Enterococcus faecalis assessed as inhibition of bacterial growth measured after 24 hrs by CLSI based broth microdilution method

Compound `O=C1c2cccc(O)c2C(=O)c2c(O)cc(C(Nc3ccc(S(=O)(=O)Nc4ncccn4)cc3)P(=O)(Oc3ccccc3)Oc3ccccc3)cc21` (stereo not given) has an MIC [1] of 64 µg/mL (≈ 87.1 µM), an MIC [2] of 32 µg/mL (≈ 43.6 µM) and an MIC [3] of 256 µg/mL (≈ 348 µM). It also gave an MIC [4] of 32 µg/mL (≈ 43.6 µM), an MIC [5] of 64 µg/mL (≈ 87.1 µM) and an MIC [6] of 128 µg/mL (≈ 174 µM). It also gave an MIC [7] of 64 µg/mL (≈ 87.1 µM), an MIC [8] of 128 µg/mL (≈ 174 µM) and an MIC [9] of 64 µg/mL (≈ 87.1 µM). It also gave an MIC [10] of 64 µg/mL (≈ 87.1 µM).
`O=C1c2cccc(O)c2C(=O)c2c(O)cc(C(Nc3ccc(S(=O)(=O)Nc4nccs4)cc3)P(=O)(Oc3ccccc3)Oc3ccccc3)cc21` (stereo not given) showed an MIC [1] of 128 µg/mL (≈ 173 µM), an MIC [2] of 64 µg/mL (≈ 86.5 µM) and an MIC [3] of 256 µg/mL (≈ 346 µM). For the same compound, the MIC [4] was 64 µg/mL (≈ 86.5 µM), the MIC [5] was 128 µg/mL (≈ 173 µM) and the MIC [6] was 128 µg/mL (≈ 173 µM). It also gave an MIC [7] of 64 µg/mL (≈ 86.5 µM), an MIC [8] of 32 µg/mL (≈ 43.3 µM) and an MIC [9] of 64 µg/mL (≈ 86.5 µM). For the same compound, the MIC [10] was 64 µg/mL (≈ 86.5 µM).
Work on `Nc1ccc(S(=O)(=O)Nc2ncccn2)cc1` [SULFADIAZINE] yielded an MIC [1] of 64 µg/mL (≈ 256 µM), an MIC [2] of 64 µg/mL (≈ 256 µM) and an MIC [3] of 16 µg/mL (≈ 63.9 µM). It also gave an MIC [4] of 32 µg/mL (≈ 128 µM), an MIC [5] of 64 µg/mL (≈ 256 µM) and an MIC [6] of 256 µg/mL (≈ 1020 µM). The MIC [7] was 32 µg/mL (≈ 128 µM), the MIC [8] was 8 µg/mL (≈ 32 µM) and the MIC [9] was 64 µg/mL (≈ 256 µM). The MIC [10] was 16 µg/mL (≈ 63.9 µM).
In the case of `Cc1noc(NS(=O)(=O)c2ccc(NC(c3cc(O)c4c(c3)C(=O)c3cccc(O)c3C4=O)P(=O)(Oc3ccccc3)Oc3ccccc3)cc2)c1C` (stereo not given), the MIC [1] is reported as 64 µg/mL (≈ 85.1 µM), the MIC [2] is reported as 16 µg/mL (≈ 21.3 µM) and the MIC [3] is reported as 16 µg/mL (≈ 21.3 µM). For the same compound, the MIC [4] was 64 µg/mL (≈ 85.1 µM), the MIC [5] was 64 µg/mL (≈ 85.1 µM) and the MIC [6] was 128 µg/mL (≈ 170 µM). For the same compound, the MIC [7] was 128 µg/mL (≈ 170 µM), the MIC [8] was 32 µg/mL (≈ 42.6 µM) and the MIC [9] was 32 µg/mL (≈ 42.6 µM). It also gave an MIC [10] of 64 µg/mL (≈ 85.1 µM).
With `Cc1cc(NS(=O)(=O)c2ccc(N)cc2)no1` [SULFAMETHOXAZOLE] the MIC [1] was 2 µg/mL (≈ 7.9 µM), the MIC [2] was 8 µg/mL (≈ 31.6 µM) and the MIC [3] was 32 µg/mL (≈ 126 µM). The MIC [4] was 4 µg/mL (≈ 15.8 µM), the MIC [5] was 64 µg/mL (≈ 253 µM) and the MIC [6] was 8 µg/mL (≈ 31.6 µM). For the same compound, the MIC [7] was 4 µg/mL (≈ 15.8 µM), the MIC [8] was 4 µg/mL (≈ 15.8 µM) and the MIC [9] was 4 µg/mL (≈ 15.8 µM). The MIC [10] was 16 µg/mL (≈ 63.2 µM).
Compound `CCOP(=O)(OCC)C(Nc1ccc(S(=O)(=O)Nc2onc(C)c2C)cc1)c1cc(O)c2c(c1)C(=O)c1cccc(O)c1C2=O` (stereo not given) has an MIC [1] of 256 µg/mL (≈ 390 µM), an MIC [2] of 256 µg/mL (≈ 390 µM) and an MIC [3] of 256 µg/mL (≈ 390 µM). For the same compound, the MIC [4] was 256 µg/mL (≈ 390 µM), the MIC [5] was 256 µg/mL (≈ 390 µM) and the MIC [6] was 256 µg/mL (≈ 390 µM). For the same compound, the MIC [7] was 256 µg/mL (≈ 390 µM), the MIC [8] was 256 µg/mL (≈ 390 µM) and the MIC [9] was 16 µg/mL (≈ 24.4 µM). For the same compound, the MIC [10] was 256 µg/mL (≈ 390 µM).
With `CCCCOP(=O)(OCCCC)C(Nc1ccc(S(N)(=O)=O)cc1)c1cc(O)c2c(c1)C(=O)c1cccc(O)c1C2=O` (stereo not given) the MIC [1] was 256 µg/mL (≈ 415 µM), the MIC [2] was 256 µg/mL (≈ 415 µM) and the MIC [3] was 256 µg/mL (≈ 415 µM). For the same compound, the MIC [4] was 256 µg/mL (≈ 415 µM), the MIC [5] was 256 µg/mL (≈ 415 µM) and the MIC [6] was 256 µg/mL (≈ 415 µM). It also gave an MIC [7] of 256 µg/mL (≈ 415 µM), an MIC [8] of 256 µg/mL (≈ 415 µM) and an MIC [9] of 64 µg/mL (≈ 104 µM). It also gave an MIC [10] of 128 µg/mL (≈ 208 µM).
`COP(=O)(OC)C(Nc1ccc(S(=O)(=O)Nc2nccs2)cc1)c1cc(O)c2c(c1)C(=O)c1cccc(O)c1C2=O` (stereo not given) was tested, and the MIC [1] was 64 µg/mL (≈ 104 µM), the MIC [2] was 8 µg/mL (≈ 13 µM) and the MIC [3] was 32 µg/mL (≈ 52 µM). For the same compound, the MIC [4] was 64 µg/mL (≈ 104 µM), the MIC [5] was 1 µg/mL (≈ 1.62 µM) and the MIC [6] was 2 µg/mL (≈ 3.25 µM). It also gave an MIC [7] of 8 µg/mL (≈ 13 µM), an MIC [8] of 16 µg/mL (≈ 26 µM) and an MIC [9] of 64 µg/mL (≈ 104 µM). For the same compound, the MIC [10] was 32 µg/mL (≈ 52 µM).
`COP(=O)(OC)C(Nc1ccc(S(=O)(=O)Nc2cc(C)on2)cc1)c1cc(O)c2c(c1)C(=O)c1cccc(O)c1C2=O` (stereo not given) was tested, and the MIC [1] was 64 µg/mL (≈ 104 µM), the MIC [2] was 8 µg/mL (≈ 13 µM) and the MIC [3] was 0.5 µg/mL (≈ 0.815 µM). It also gave an MIC [4] of 64 µg/mL (≈ 104 µM), an MIC [5] of 16 µg/mL (≈ 26.1 µM) and an MIC [6] of 32 µg/mL (≈ 52.2 µM). For the same compound, the MIC [7] was 128 µg/mL (≈ 209 µM), the MIC [8] was 16 µg/mL (≈ 26.1 µM) and the MIC [9] was 128 µg/mL (≈ 209 µM). It also gave an MIC [10] of 64 µg/mL (≈ 104 µM).
`O=C1c2cccc(O)c2C(=O)c2c(O)cc(CO)cc21` [ALOE-EMODIN] showed an MIC [1] of 4 µg/mL (≈ 14.8 µM), an MIC [2] of 64 µg/mL (≈ 237 µM) and an MIC [3] of 8 µg/mL (≈ 29.6 µM). The MIC [4] was 4 µg/mL (≈ 14.8 µM), the MIC [5] was 8 µg/mL (≈ 29.6 µM) and the MIC [6] was 64 µg/mL (≈ 237 µM). For the same compound, the MIC [7] was 8 µg/mL (≈ 29.6 µM), the MIC [8] was 16 µg/mL (≈ 59.2 µM) and the MIC [9] was 16 µg/mL (≈ 59.2 µM). It also gave an MIC [10] of 32 µg/mL (≈ 118 µM).
`NS(=O)(=O)c1ccc(NC(c2cc(O)c3c(c2)C(=O)c2cccc(O)c2C3=O)P(=O)(Oc2ccccc2)Oc2ccccc2)cc1` (stereo not given) gave an MIC [1] of 32 µg/mL (≈ 48.7 µM), an MIC [2] of 64 µg/mL (≈ 97.5 µM) and an MIC [3] of 256 µg/mL (≈ 390 µM). For the same compound, the MIC [4] was 32 µg/mL (≈ 48.7 µM), the MIC [5] was 64 µg/mL (≈ 97.5 µM) and the MIC [6] was 128 µg/mL (≈ 195 µM). It also gave an MIC [7] of 16 µg/mL (≈ 24.4 µM), an MIC [8] of 128 µg/mL (≈ 195 µM) and an MIC [9] of 16 µg/mL (≈ 24.4 µM). It also gave an MIC [10] of 32 µg/mL (≈ 48.7 µM).
`Nc1ccc(S(=O)(=O)Nc2nccs2)cc1` [SULFATHIAZOLE] was tested, and the MIC [1] was 64 µg/mL (≈ 251 µM), the MIC [2] was 128 µg/mL (≈ 501 µM) and the MIC [3] was 64 µg/mL (≈ 251 µM). The MIC [4] was 64 µg/mL (≈ 251 µM), the MIC [5] was 64 µg/mL (≈ 251 µM) and the MIC [6] was 256 µg/mL (≈ 1000 µM). The MIC [7] was 32 µg/mL (≈ 125 µM), the MIC [8] was 64 µg/mL (≈ 251 µM) and the MIC [9] was 128 µg/mL (≈ 501 µM). It also gave an MIC [10] of 64 µg/mL (≈ 251 µM).
